Laboratory results taken from article PMC11042424, “Development of a First-in-Class RIPK1 Degrader to Enhance Antitumor Immunity” (Research Square, 2024).
Where two headings read alike, the source gives them in different places.

Legend:
[1] = Pharmacokinetics in C57BL/6J mice; type: in vivo; details: mouse, plasma
Procedure: Next, we evaluated the pharmacokinetics (PK) of LD4172 in C57BL/6J (B6) mice (Fig. 4A).
Figure 4 LD4172 synergizes with Anti-PD1 to inhibit tumor growth. A, Plasma concentrations of LD4172 in C57BL/6J mice administered 1 mg/kg intravenously (i.v.) or 10 mg/kg intraperitoneally (i.p.) (n=4). B, Representative immunoblots of RIPK1 in different tissues of C57BL/6J mice treated with LD4172 (n=3–4). C, Densitometric analysis of RIPK1 protein levels in different tissues (n=3 or 4). D, Representative immunoblots of RIPK1 levels of B16F10 cells transduced with gRNA specific for RIPK1 or non-targetable control (sgNC). E, B16F10-RIPK1-KO tumors sensitized to anti-PD1 treatment: 3×10^5 B16F10 cells transduced with gRNA specific for RIPK1 or non-targetable control (sgNC) were inoculated into C57BL/6J mice. After seven days, mice with measurable tumors (~100 mm3) were randomly treated with or without anti-PD1 in vivo (100 μg per dose, i.p., every three days, n=8). F, Tumor growth curve of mice with B16F10 tumors treated with LD4172 and/or anti-PD1 (n=8). C57B6/J mice were subcutaneously inoculated with 3×10^5 B16F10 tumor cells. After seven days (tumor size ~ 100 mm3), mice were treated every three days with anti- PD1 (100 μg per dose, i.p.), daily with LD4172 (20 mg/kg, i.p.), a combination of LD4172 and anti-PD1 (same dose as their individual doses), or their corresponding vehicle control. G, Kaplan-Meier survival curve for all experimental groups. H, Final tumor weight (g) from F after 22d of treatment (n=8). I, Representative images of B16F10 tumors collected at the end of treatment. J, Mouse body weight (n=8). K, Tumor growth curve of mice with B16F10 tumors treated with T2I and/or anti-PD1 (n=8). The experimental conditions and treatment regimens were the same as F except using the RIPK1 kinase inhibitor T2I (20 mg/kg, i.p.) to replace LD4172. Representative data from at least three independent experiments are shown. Data are expressed as the mean ± SEM. * p<0.05; ** p<0.01; *** p<0.001, **** p<0.0001, respectively. ns, indicates no statistical significance.

[2] = Stability in human primary hepatocytes; type: in vitro ADME
B16F10 cells = experiment: TNFα-mediated apoptosis in B16F10 cells; type: cell-based, mouse; details: 1 μM, TNFα 100 ng/mL, 72 hours
Text: Figure 3 LD4172 sensitizes B16F10 cells to TNFα-mediated apoptosis. A, Representative flow cytometry dot plots of apoptosis. In all four plots, viable cells are seen in the left lower quadrant (FITC-/PI-), early apoptotic cells in the right lower quadrant (FITC+/PI-), and late apoptotic cells in the right upper quadrant (FITC+/PI+). B, Representative images of PI (red) and caspase 3/7 (Cas3/7+, green) staining of B16F10 cells. Cell death assessed by PI uptake using Cytation 5 imager. C, Western blots for the expression of cleaved caspase3, cleaved caspase7, and cleaved PARP in B16F10 cells. D, Quantification of extracellular ATP level. Western blots for the expression of HMGB1 and calreticulin in B16F10 cells. E, Immunofluorescence staining of HMGB1 in B16F10 cells. B16F10 cells were treated in the presence or absence of TNFα (100 ng/mL), Z-VAD-FMK (25 μM), LD4172 (1 μM), and/or T2I (1 μM) as indicated for 72 hours. Data are representative of three independent experiments. Error bars represent SD.
Apoptosis quantification was conducted utilizing a FITC-conjugated Annexin V/PI assay kit (556547, BD Biosciences) and analyzed through flow cytometry. Briefly, 2×10^5 of B16F10 cells were seeded onto six-well plates and treated as specified for 72 hours at 37°C. Treated and untreated cells were harvested, washed with PBS, and resuspended in 100 μl of binding buffer. […]

hERG channel = hERG channel (Homo sapiens, UniProt Q12809); experiment: hERG channel inhibition assay; details: at 30 μM
Chain of hERG channel (Q12809 whole entry): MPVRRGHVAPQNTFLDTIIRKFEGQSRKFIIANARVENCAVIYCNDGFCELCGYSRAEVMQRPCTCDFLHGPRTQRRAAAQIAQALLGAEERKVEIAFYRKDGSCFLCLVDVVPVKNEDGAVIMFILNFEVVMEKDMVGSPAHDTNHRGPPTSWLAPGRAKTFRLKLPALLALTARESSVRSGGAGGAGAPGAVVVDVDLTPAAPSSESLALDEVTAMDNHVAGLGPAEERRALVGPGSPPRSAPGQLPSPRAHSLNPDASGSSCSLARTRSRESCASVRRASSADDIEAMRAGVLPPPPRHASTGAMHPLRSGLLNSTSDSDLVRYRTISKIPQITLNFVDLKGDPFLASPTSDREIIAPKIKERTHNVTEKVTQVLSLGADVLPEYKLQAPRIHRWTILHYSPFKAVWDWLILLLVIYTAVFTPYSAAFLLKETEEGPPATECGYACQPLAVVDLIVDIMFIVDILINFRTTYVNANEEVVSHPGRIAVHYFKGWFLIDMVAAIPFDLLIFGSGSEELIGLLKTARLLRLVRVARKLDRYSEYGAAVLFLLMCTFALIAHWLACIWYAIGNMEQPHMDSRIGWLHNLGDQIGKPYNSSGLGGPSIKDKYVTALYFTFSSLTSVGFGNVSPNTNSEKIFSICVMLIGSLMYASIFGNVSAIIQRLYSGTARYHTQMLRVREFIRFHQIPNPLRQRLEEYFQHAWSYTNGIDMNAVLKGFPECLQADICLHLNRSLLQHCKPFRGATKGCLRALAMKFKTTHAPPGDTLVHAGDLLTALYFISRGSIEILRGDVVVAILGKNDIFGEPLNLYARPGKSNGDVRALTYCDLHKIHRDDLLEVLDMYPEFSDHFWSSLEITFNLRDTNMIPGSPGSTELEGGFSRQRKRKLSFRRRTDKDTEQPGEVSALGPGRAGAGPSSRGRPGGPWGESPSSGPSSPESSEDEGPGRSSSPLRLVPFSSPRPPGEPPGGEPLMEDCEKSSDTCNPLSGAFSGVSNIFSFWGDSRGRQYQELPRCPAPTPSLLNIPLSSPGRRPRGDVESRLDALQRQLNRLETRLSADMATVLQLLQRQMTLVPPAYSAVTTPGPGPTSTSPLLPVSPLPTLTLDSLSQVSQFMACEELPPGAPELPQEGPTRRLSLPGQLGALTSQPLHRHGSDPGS

## Cc1ncsc1-c1ccc([C@H](C)NC(=O)[C@@H]2C[C@@H](O)CN2C(=O)[C@@H](NC(=O)CCCCCCCCCCC(=O)NCCCn2cc(-c3ccc4c(c3)CCN4C(=O)Cc3cccc(OC(F)(F)F)c3)c3c(N)ncnc32)C(C)(C)C)cc1 [LD4172]
[1]; intraperitoneal, i.p. 10 mg/kg vs i.v. 1 mg/kg
  bioavailability: 39%
[1]; ip, 10 mg/kg i.p., read-out: AUC
  AUC: 2.7 µM·h
[1]; ip, 10 mg/kg i.p., read-out: Cmax
  Cmax: 2.9 µM
[1]; ip, 10 mg/kg i.p., read-out: t1/2 (converted)
  half-life: 1.5 h
[1]; iv, 1 mg/kg i.v.
  clearance: 19.8 ± 1.8 mL/min/kg
[1]; iv, 1 mg/kg i.v., read-out: area under the concentration-time curve (AUC)
  AUC: 0.7 ± 0.07 µM·h
[1]; iv, 1 mg/kg i.v., read-out: half-life (t1/2) (converted)
  half-life: 3.3 ± 2.1 h
[1]; iv, 1 mg/kg i.v., read-out: maximum plasma concentration (Cmax)
  Cmax: 6.3 ± 0.8 µM
[1]; iv, 1 mg/kg i.v., read-out: volume of distribution (Vd)
  Vd: 1.1 ± 0.2 L/kg
[2]
  half-life: 0.938 h
B16F10 cells
  cell death / apoptosis in combination with TNFα: significant cell death
hERG channel
  inhibition of hERG: no obvious inhibition
